The IC50 is the concentration at which inhibition is half-maximal. One may read the pKi as the Ki on a negative log10 scale, so that one unit is a factor of ten. A higher pKi goes with a low Ki. By Ki is commonly meant the dissociation constant of the complex between target and ligand, obtained from inhibition or displacement.

The target in data set [1] is T1, MMP-13 (Homo sapiens, UniProt P45452). The data set can be described thus: Dual inhibition kinetics. Type of data set: biochemical.
Data set [2] has as its target T1, MMP-13. The data set can be described thus: Cartilage explant assay. Type of data set: biochemical. As to conditions: read-out: inhibition of cartilage degradation.
Another data set deals with CYP3A4 (Homo sapiens, UniProt P08684). The data set can be described thus: CYP450 panel inhibition, CYP3A4. The note with it: human liver microsomes, pH 7.4, probe testosterone. (Liver microsomes are a subcellular fraction often used to study metabolism.)
A further data set has as its target T2, cathepsin K (Homo sapiens, UniProt P43235).
T2 sequence (P43235 115-329): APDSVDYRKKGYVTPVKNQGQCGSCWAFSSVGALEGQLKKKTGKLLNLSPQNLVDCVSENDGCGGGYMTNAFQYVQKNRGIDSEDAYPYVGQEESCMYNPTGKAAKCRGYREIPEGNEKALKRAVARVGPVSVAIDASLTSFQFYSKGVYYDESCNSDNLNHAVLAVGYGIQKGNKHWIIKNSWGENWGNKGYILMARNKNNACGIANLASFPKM
The data set can be described thus: Protease profiling panel, cathepsin K. The note with it: read-out: highest inhibitory activity against cathepsin K. Type of data set: biochemical.

The target in a further data set is T3, caspase 5 (Homo sapiens, UniProt P51878).
T3 sequence (P51878 138-434 limits assumed): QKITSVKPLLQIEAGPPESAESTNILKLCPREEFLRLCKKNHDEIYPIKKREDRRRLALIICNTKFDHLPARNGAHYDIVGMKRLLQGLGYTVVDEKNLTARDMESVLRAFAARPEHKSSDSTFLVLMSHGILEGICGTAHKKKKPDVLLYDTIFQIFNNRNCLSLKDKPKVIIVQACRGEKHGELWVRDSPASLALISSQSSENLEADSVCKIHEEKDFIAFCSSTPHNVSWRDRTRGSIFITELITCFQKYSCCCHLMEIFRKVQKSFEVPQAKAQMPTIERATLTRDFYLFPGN
Put plainly: Protease profiling panel, caspase 5. As to conditions: 20 μM to 0.1 nM range. Type of data set: biochemical.

In another data set the test system is MMP-1. As to conditions: read-out: IC50 MMP-1; antitarget selectivity; cited from earlier work.
The subject of a further data set is MMP-8. As to conditions: read-out: IC50 MMP-8; antitarget selectivity; cited from earlier work.
Data set [3] concerns the target T1, MMP-13. Put plainly: Single inhibitor kinetics, MMP-13 hydrolysis of fTHP-15. Type of data set: biochemical.

Molecules are shown by their SMILES. Some results are limits rather than exact numbers.

CYP3A4, sequence (P08684 whole entry): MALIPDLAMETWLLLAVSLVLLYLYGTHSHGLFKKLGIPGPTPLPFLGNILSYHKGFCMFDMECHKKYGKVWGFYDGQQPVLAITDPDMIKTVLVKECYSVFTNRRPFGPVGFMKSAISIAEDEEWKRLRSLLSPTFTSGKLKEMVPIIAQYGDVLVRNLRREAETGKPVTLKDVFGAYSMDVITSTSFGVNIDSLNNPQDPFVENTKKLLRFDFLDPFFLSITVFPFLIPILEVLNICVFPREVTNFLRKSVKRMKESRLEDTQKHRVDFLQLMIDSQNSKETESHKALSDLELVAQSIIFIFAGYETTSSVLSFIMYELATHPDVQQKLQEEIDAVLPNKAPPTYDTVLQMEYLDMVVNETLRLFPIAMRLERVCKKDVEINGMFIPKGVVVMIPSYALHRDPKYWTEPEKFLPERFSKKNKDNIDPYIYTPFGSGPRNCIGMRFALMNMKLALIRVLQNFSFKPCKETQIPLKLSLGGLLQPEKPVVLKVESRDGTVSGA

As to `Oc1nc(SCc2ccc(Cl)cc2)nc2c1CCC2` [Compound 1], the “B value (Yonetani–Theorell)” value on MMP-13 [1] (1 (0–2 μM) in combination with 6 (AHA, 0–1.25 mM), B<1 = synergistic binding) is recorded as < 1; at MMP-13 [1] (1 in combination with 4, B<1 = positive cooperativity) it was < 1; at MMP-13 [1] (1 in combination with 5, B<1 = synergistic binding) it was < 1. For the same compound, at MMP-13 [2], the inhibition at 10 µM was determined as 69 ± 17%. This compound also returned an inhibition at 20 µM at CYP3A4 of 14%.

Consider `Cc1ccc(CSc2nc(O)c3c(n2)CCC3)cc1` [Compound 2], for which the inhibition at 20 µM on cathepsin K and at CYP3A4 was 20% throughout. The “activity against caspase 5 on inspection of dose response” value at caspase 5 is “artifactual”. The IC50 in the data set with MMP-1 and in the data set with MMP-8 was > 40 µM throughout.

With `COC(=O)c1ccc(CSc2nc3c(c(=O)[nH]2)CCC3)cc1` [Compound 3], the IC50 in the data set on MMP-1 and with MMP-8 was > 40 µM in each case.

Compound `CC(=O)NO` [Compound 6, N-hydroxyacetamide] yielded a pKi on MMP-13 [3] (from fTHP-15 Ki) of 2.9. Further, on MMP-13 [3] (read-out: fTHP-15 Ki, fTHP-15 substrate, mixed inhibition model, nonlinear regression), the inhibition constant Ki is 1190 µM.

These data come from publication PMC4255739 (Journal of Medicinal Chemistry, 2014).
